Usually pIC50 stands for the negative decadic logarithm of the IC50, by convention in mol/L. Low values mean a high IC50, high ones a low IC50.

The structures appear in SMILES notation. pIC50: −log10 of the molar value. Some results are limits rather than exact numbers.

This experiment deals with His-tagged N-terminal ATP binding domain (amino acid residues 9-236) of HSP90α (Homo sapiens, UniProt P07900). As to the kind of experiment: HSP90 inhibitor binding potency: TRF competition binding assay. To be noted: Table 3; competition with biotinylated radicicol. The procedure, abridged:
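Competition against biotinylated radicicol for binding to the His-tagged 9-236 ATP domain of HSP90α: 2 h, room temperature, HEPES/MgCl2/KCl/BSA buffer. Streptavidin capture, then europium-labeled anti-His antibody and enhancement solution; europium counts give IC50.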

The compound `COc1cccc(-c2cc(F)ccc2[C@H]2Cc3nc(N)nc(C)c3C(=O)N2Cc2cccc(C(F)(F)F)c2)n1` [Compound 128, (R)-2-Amino-7-[4-fluoro-2-(6-methoxy-pyridin-2-yl)-pheny 1]-4-methyl-6-(3-trifluoromethyl-benzyl)-7,8-dihydro-6H-pyrido[4,3-d]pyrimidin-5-one] gave a pIC50 of more than 5.00.
`COc1cncc(-c2cc(F)ccc2[C@H]2Cc3nc(N)nc(C)c3C(=O)N2Cc2ccccc2F)n1` [Compound 129, (R)-2-Amino-6-(2-fluoro-benzyl)-7-[4-fluoro-2-(6-methoxy-pyrazin-2-yl)-phenyl]-4-methyl-7,8-dihydro-6H-pyrido[4,3-d]pyrimidin-5-one] had a pIC50 of more than 5.00.
`COc1cncc(-c2cc(F)ccc2[C@H]2Cc3nc(N)nc(C)c3C(=O)N2Cc2ccccc2Cl)n1` [Compound 130, (R)-2-Amino-6-(2-chloro-benzyl)-7-[4-fluoro-2-(6-methoxy-pyrazin-2-yl)-phenyl]-4-methyl-7,8-dihydro-6H-pyrido[4,3-d]pyrimidin-5-one] showed a pIC50 of more than 5.00.
In turn, `COc1cncc(-c2cc(F)ccc2[C@H]2Cc3nc(N)nc(C)c3C(=O)N2CC2CCOCC2)n1` [Compound 131, (R)-2-Amino-7-[4-fluoro-2-(6-methoxy-pyrazin-2-yl)-phenyl]-4-methyl-6-(tetrahydro-pyran-4-ylmethyl)-7,8-dihydro-6H-pyrido[4,3-d]pyrimidin-5-one] gave a pIC50 of more than 5.00.
In turn, `COc1cccc(-c2cc(F)ccc2[C@H]2Cc3nc(N)nc(C)c3C(=O)N2CC2CCOCC2)n1` [Compound 132, (R)-2-Amino-7-[4-fluoro-2-(6-methoxy-pyridin-2-yl)-phenyl]-4-methyl-6-(tetrahydro-pyran-4-ylmethyl)-7,8-dihydro-6H-pyrido[4,3-d]pyrimidin-5-one] showed a pIC50 of more than 5.00.
`COc1cncc(-c2cc(F)ccc2[C@H]2Cc3nc(N)nc(C)c3C(=O)N2CC(C)(C)N2CCOCC2)n1` [Compound 133, (R)-2-Amino-7-[4-fluoro-2-(6-methoxy-pyrazin-2-yl)-phenyl]-4-methyl-6-(2-methyl-2-morpholin-4-yl-propyl)-7,8-dihydro-6H-pyrido[4,3-d]pyrimidin-5-one] had a pIC50 of more than 5.00.
`COc1cccc(-c2cc(F)ccc2[C@H]2Cc3nc(N)nc(C)c3C(=O)N2Cc2ccccc2)n1` [Compound 134, (R)-2-Amino-6-benzyl-7-[4-fluoro-2-(6-methoxy-pyridin-2-yl)-phenyl]-4-methyl-7,8-dihydro-6H-pyrido[4,3-d]pyrimidin-5-one] gave a pIC50 of more than 5.00.
`COc1ncccc1-c1cc(F)ccc1[C@H]1Cc2nc(N)nc(C)c2C(=O)N1Cc1ccccc1` [Compound 135, (R)-2-Amino-6-benzyl-7-[4-fluoro-2-(2-methoxy-pyridin-3-yl)-phenyl]-4-methyl-7,8-dihydro-6H-pyrido[4,3-d]pyrimidin-5-one] showed a pIC50 of more than 5.00.
In the case of `COc1cncc(-c2cc(F)ccc2[C@H]2Cc3nc(N)nc(C)c3C(=O)N2Cc2ccccc2)n1` [Compound 136, (R)-2-Amino-6-benzyl-7-[4-fluoro-2-(6-methoxy-pyrazin-2-yl)-phenyl]-4-methyl-7,8-dihydro-6H-pyrido[4,3-d]pyrimidin-5-one] it was more than 5.00; in that of `Cc1nc(N)nc2c1C(=O)N(Cc1ccccc1)[C@@H](c1ccc(F)cc1-c1cccc(F)c1F)C2` [Compound 138, (R)-2-Amino-6-benzyl-4-methyl-7-(5,2′,3′-trifluoro-biphenyl-2-yl)-7,8-dihydro-6H-pyrido[4,3-d]pyrimidin-5-one], more than 5.00; in that of `COc1ccc(-c2cc(F)ccc2[C@H]2Cc3nc(N)nc(C)c3C(=O)N2Cc2ccccc2)cc1F` [Compound 139, (R)-2-Amino-6-benzyl-7-(5,3′-difluoro-4′-methoxy-biphenyl-2-yl)-4-methyl-7,8-dihydro-6H-pyrido[4,3-d]pyrimidin-5-one], less than 5.00.
Regarding `Cc1nc(N)nc2c1C(=O)N(Cc1ccccc1)[C@@H](c1ccc(F)cc1-c1cccnc1)C2` [Compound 140, (R)-2-Amino-6-benzyl-7-(4-fluoro-2-pyridin-3-yl-phenyl)-4-methyl-7,8-dihydro-6H-pyrido[4,3-d]pyrimidin-5-one], the pIC50 is more than 5.00.
For `COc1ncc(-c2cc(F)ccc2[C@H]2Cc3nc(N)nc(C)c3C(=O)N2Cc2ccccc2)c(OC)n1` [Compound 141, (R)-2-Amino-6-benzyl-7-[2-(2,4-dimethoxy-pyrimidin-5-yl)-4-fluoro-phenyl]-4-methyl-7,8-dihydro-6H-pyrido[4,3-d]pyrimidin-5-one], the pIC50 is less than 5.00.
Compound `Cc1ccc(-c2cc(F)ccc2[C@H]2Cc3nc(N)nc(C)c3C(=O)N2Cc2ccccc2)c(F)c1` [Compound 142, (R)-2-Amino-6-benzyl-7-(5,2′-difluoro-4′-methyl-biphenyl-2-yl)-4-methyl-7,8-dihydro-6H-pyrido[4,3-d]pyrimidin-5-one] had a pIC50 of less than 5.00.
Consider `Cc1nc(N)nc2c1C(=O)N(Cc1ccccc1)[C@@H](c1ccc(F)cc1-c1cccnc1F)C2` [Compound 143, (R)-2-Amino-6-benzyl-7-[4-fluoro-2-(2-fluoro-pyridin-3-yl)-phenyl]-4-methyl-7,8-dihydro-6H-pyrido[4,3-d]pyrimidin-5-one], for which the pIC50 was more than 5.00.
The compound `COc1cccc(-c2cc(F)ccc2[C@H]2Cc3nc(N)nc(C)c3C(=O)N2Cc2ccccc2)c1F` [Compound 144, (R)-2-Amino-6-benzyl-7-(5,2′-difluoro-3′-methoxy-biphenyl-2-yl)-4-methyl-7,8-dihydro-6H-pyrido[4,3-d]pyriniidin-5-one] showed a pIC50 of less than 5.00.
Take `COc1ncc(-c2cc(F)ccc2[C@H]2Cc3nc(N)nc(C)c3C(=O)N2)nc1OC` [Compound 145, 2-Amino-7-[2-(5,6-dimethoxy-pyrazin-2-yl)-4-fluoro-phenyl]-4-methyl-7,8-dihydro-6H-pyrido[4,3-d]pyrimidin-5-one]: the pIC50 was more than 5.00.
`COc1cncc(-c2cc(F)ccc2[C@H]2Cc3nc(N)nc(C)c3C(=O)N2CCC(C)C)n1` [Compound 146, (R)-2-Amino-7-[4-fluoro-2-(6-methoxy-pyrazin-2-yl)-phenyl]-4-methyl-6-(3-methyl-butyl)-7,8-dihydro-6H-pyrido[4,3-d]pyrimidin-5-one] had a pIC50 of more than 5.00.
In turn, `COc1ncc(-c2cc(F)ccc2[C@H]2Cc3nc(N)nc(C)c3C(=O)N2CCC(C)C)nc1OC` [Compound 147, (R)-2-Amino-7-[-(5,6-dimethoxy-pyrazin-2-yl)-4-fluoro-phenyl]-4-methyl-6-(3-methyl-butyl)-7,8-dihydro-6H-pyrido[4,3-d]pyrimidin-5-one] showed a pIC50 of more than 5.00.
Take `Cc1nc(N)nc2c1C(=O)N(CCC(C)C)[C@@H](c1ccc(F)cc1Br)C2` [Compound 148, (R)-2-Amino-7-(2-bromo-4-fluoro-phenyl)-4-methyl-6-(3-methyl-butyl)-7,8-dihydro-6H-pyrido[4,3-d]pyrimidin-5-one]: the negative logarithm of the IC50 (pIC50) is less than 5.00.
Turning to `Cc1nc(N)nc2c1C(=O)N(CC(C)C)[C@@H](c1ccc(F)cc1Br)C2` [Compound 149, (R)-2-Amino-7-(2-bromo-4-fluoro-phenyl)-6-isobutyl-4-methyl-7,8-dihydro-6H-pyrido[4,3-d]pyrimidin-5-one], the negative logarithm of the IC50 (pIC50) was less than 5.00.
Then `COc1cccc(-c2cc(F)ccc2[C@H]2Cc3nc(N)nc(C)c3C(=O)N2CCC(C)C)n1` [Compound 150, (R)-2-Amino-7-[4-fluoro-2-(6-methoxy-pyridin-2-yl)-phenyl]-4-methyl-6-(3-methyl-butyl)-7,8-dihydro-6H-pyrido[4,3-d]pyrimidin-5-one], with more than 5.00.
In turn, `Cc1nc(N)nc2c1C(=O)N(CCC(C)C)[C@@H](c1ccc(F)cc1-c1cccnc1F)C2` [Compound 151, (R)-2-Amino-7-[4-fluoro-2-(2-fluoro-pyridin-3-yl)-phenyl]-4-methyl-6-(3-methyl-butyl)-7,8-dihydro-6H-pyrido[4,3-d]pyrimidin-5-one] gave a pIC50 of more than 5.00.
In the case of `COc1ncccc1-c1cc(F)ccc1[C@H]1Cc2nc(N)nc(C)c2C(=O)N1CCC(C)C` [Compound 152, (R)-2-Amino-7-[4-fluoro-2-(2-methoxy-pyridin-3-yl)-phenyl]-4-methyl-6-(3-methyl-butyl)-7,8-dihydro-6H-pyrido[4,3-d]pyrimidin-5-one] it was more than 5.00; in that of `COc1ccncc1-c1cc(F)ccc1[C@H]1Cc2nc(N)nc(C)c2C(=O)N1CCC(C)C` [Compound 153, (R)-2-Amino-7-[4-fluoro-2-(4-methoxy-pyridin-3-yl)-phenyl]-4-methyl-6-(3-methyl-butyl)-7,8-dihydro-6H-pyrido[4,3-d]pyrimidin-5-one], more than 5.00.
Then `COc1cncc(-c2cc(F)ccc2[C@H]2Cc3nc(N)nc(C)c3C(=O)N2CC(C)C)n1` [Compound 154, (R)-2-Amino-7-[4-fluoro-2-(6-methoxy-pyrazin-2-yl)-phenyl]-6-isobutyl-4-methyl-7,8-dihydro-6H-pyrido[4,3-d]pyrimidin-5-one], with more than 5.00; and `COc1cccc(-c2cc(F)ccc2[C@H]2Cc3nc(N)nc(C)c3C(=O)N2CC(C)C)n1` [Compound 155, (R)-2-Amino-7-[4-fluoro-2-(6-methoxy-pyridin-2-yl)-phenyl]-6-isobutyl-4-methyl-7,8-dihydro-6H-pyrido[4,3-d]pyrimidin-5-one], with more than 5.00; and `COc1ncc(-c2cc(F)ccc2[C@H]2Cc3nc(N)nc(C)c3C(=O)N2CC(C)C)nc1OC` [Compound 156, (R)-2-Amino-7-[2-(5,6-dimethoxy-pyrazin-2-yl)-4-fluoro-phenyl]-6-isobutyl-4-methyl-7,8-dihydro-6H-pyrido[4,3-d]pyrimidin-5-one], with more than 5.00.
For `Cc1nc(N)nc2c1C(=O)N(CC(C)C)[C@@H](c1ccc(F)cc1-c1cccnc1F)C2` [Compound 157, (R)-2-Amino-7-[4-fluoro-2-(2-fluoro-pyridin-3-yl)-phenyl]-6-isobutyl-4-methyl-7,8-dihydro-6H-pyrido[4,3-d]pyrimidin-5-one], the pIC50 was more than 5.00.

The record behind these values is patent publication US20070123546A1, “2-amino-7,8-dihydro-6H-pyrido[4,3-d]pyrimidin-5-ones” (Chiron Corporation, priority 2005, published 2007).
